Experimental data taken from PMC10791743, “Selective CK1α degraders exert antiproliferative activity against a broad range of human cancer cell lines” (Nature Communications, 2024).
Values joined by “and” are separate entries in the source; they are usually repeats but may differ in a detail not shown here. Equal entries are not always repeated.

Legend:
CK1α = CK1α (Homo sapiens, UniProt P48729+Q96SW2); test: CK1α HiBiT live-cell kinetic degradation assay (HEK293 cells); format: cell-based; set-up: engineered by CRISPR/Cas9 to express endogenous CK1α (HEK293 cells) with a HiBiT tag
CK1α, sequence (P48729 whole entry): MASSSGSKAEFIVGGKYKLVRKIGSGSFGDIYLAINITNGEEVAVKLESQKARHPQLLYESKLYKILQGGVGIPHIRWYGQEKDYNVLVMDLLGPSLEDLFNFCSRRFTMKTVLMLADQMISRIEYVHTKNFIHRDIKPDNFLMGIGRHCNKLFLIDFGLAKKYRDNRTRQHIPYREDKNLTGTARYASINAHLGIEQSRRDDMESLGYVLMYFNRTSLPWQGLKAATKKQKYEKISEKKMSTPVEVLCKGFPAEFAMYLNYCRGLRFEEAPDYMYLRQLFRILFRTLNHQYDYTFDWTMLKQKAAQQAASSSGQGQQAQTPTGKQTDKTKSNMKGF
CK1α, sequence (Q96SW2 whole entry): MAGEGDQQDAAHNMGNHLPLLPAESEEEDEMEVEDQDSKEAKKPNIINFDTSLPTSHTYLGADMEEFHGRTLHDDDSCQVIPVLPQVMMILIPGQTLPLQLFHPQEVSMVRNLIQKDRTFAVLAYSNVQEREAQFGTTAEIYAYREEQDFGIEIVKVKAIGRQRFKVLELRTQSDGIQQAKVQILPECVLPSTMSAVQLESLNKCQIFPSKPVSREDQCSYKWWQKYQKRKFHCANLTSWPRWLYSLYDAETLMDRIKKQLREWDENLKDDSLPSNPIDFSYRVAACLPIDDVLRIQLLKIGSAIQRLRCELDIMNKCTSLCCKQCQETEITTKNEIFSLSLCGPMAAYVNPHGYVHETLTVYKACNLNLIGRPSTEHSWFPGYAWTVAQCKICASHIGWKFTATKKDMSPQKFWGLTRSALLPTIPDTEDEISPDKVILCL
CK1α, sequence (Q16531 whole entry partner): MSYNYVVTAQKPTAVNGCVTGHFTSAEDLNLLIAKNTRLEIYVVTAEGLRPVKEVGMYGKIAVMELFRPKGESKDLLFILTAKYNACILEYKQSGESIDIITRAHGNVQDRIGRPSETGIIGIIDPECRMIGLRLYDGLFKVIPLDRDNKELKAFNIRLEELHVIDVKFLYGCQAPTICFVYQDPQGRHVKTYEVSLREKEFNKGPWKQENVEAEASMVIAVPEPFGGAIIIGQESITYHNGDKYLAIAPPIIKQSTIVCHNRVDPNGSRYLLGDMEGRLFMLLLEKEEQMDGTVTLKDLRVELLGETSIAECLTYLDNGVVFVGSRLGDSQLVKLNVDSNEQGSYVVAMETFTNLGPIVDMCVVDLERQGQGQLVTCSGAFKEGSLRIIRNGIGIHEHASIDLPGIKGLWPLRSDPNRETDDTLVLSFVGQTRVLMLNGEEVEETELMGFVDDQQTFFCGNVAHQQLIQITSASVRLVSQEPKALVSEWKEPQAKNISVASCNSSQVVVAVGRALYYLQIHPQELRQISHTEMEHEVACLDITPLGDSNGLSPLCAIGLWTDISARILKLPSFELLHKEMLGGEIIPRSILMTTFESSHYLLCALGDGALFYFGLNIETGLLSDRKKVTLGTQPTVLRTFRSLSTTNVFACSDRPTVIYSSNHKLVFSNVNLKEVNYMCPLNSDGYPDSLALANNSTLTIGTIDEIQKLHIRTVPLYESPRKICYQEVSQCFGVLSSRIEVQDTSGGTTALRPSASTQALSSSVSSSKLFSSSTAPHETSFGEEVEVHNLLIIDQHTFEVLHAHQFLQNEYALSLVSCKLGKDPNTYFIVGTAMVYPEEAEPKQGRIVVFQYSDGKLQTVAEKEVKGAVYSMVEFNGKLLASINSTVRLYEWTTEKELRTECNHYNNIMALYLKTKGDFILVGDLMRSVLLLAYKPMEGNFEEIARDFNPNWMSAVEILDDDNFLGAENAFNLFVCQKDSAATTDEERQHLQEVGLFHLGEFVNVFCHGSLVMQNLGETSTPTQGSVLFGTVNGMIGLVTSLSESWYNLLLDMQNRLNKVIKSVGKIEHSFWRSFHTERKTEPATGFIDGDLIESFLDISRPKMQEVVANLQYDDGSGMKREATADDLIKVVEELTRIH
From the text: To measure cellular protein levels, we used cell lines that have been engineered by CRISPR/Cas9 to express endogenous CK1α (HEK293 cells) or IKZF1 (Jurkat cells) with a HiBiT tag, which when coupled with LgBiT expression forms NanoBiT, a bioluminescent protein that can be used for kinetic studies of protein degradation. […] Cell viability was also monitored with CellTiter Glo 2.0 (Promega) at the completion of the experiment to ensure that loss of protein was not a consequence of a loss of cell viability.
IKZF1-HiBiT Jurkat LgBiT stable cells were seeded at 60,000 cells/well in 50% growth media/50% CO2 independent medium supplemented with 10% FBS and 1× Endurazine substrate. […] A dose–response curve was generated by performing 3-fold dilutions of each compound including a DMSO-only control in growth media. For live cell kinetic degradation assays, diluted compounds were added to CK1α and β-catenin plates and placed in a GloMax Discover (Promega, Cat. #GM3000) preheated to 37 °C or added to IKZF1 plates and placed in a CLARIOstar Plus (BMG LABTECH) preheated to 37 °C.
Relative protein level was determined based on normalization to the DMSO control and reported at Fractional RLUs. Degradation rate and degradation maximums were calculated from Fractional RLUs as previously described[38] using GraphPad Prism software. β-catenin stabilization time of onset for each concentration curve was calculated in GraphPad Prism by fitting an unconstrained plateau followed by one phase association model using the equation below (Y = IF(X < X0, Y0,Y0+(Plateau−Y0)*(1−exp(−K*(X−X0))))). The parameter, X0 was used as time of onset for each compound concentration.

MOLM-13 cells = test: MOLM-13 cell viability assay (CTG, 72 h); format: cell-based, human; set-up: key to Cell viability in MOLM-13 cells / cell viability, dose-response replicate values: % viability = 100 − % activity, normalized to controls; settings: for Cell viability in MOLM-13 cells: SJ7095 series
CRBN−/− MOLM-13 cells = test: Annexin-V staining for apoptosis, CRBN−/− MOLM-13; format: cell-based, human; settings: for Late apoptosis, flow cytometry / Early apoptosis, flow cytometry: CRBN-/-; for total apoptosis, flow cytometry: MOLM-13 CRBN-/-
Description: Wild type and CRBN^−/− MOLM-13 cells were grown in 12-well plates (TPP, Techno Plastic Products AG) with 500,000 cells per well in 2 ml total media volume. Cells were treated with 1 μl/ml DMSO or 1 μM compound in triplicate, and incubated for 24 or 72 h at 37 °C. To prepare samples, this buffer was used: 10 mM HEPES, 0.14 M NaCl, 2.5 mM CaCl2 pH 7.4, 2% v/v FBS in UltraPure water (Invitrogen). After incubation, samples were collected in 5-ml tubes for flow cytometry (Falcon). Single-stain controls consisted of ~150 μl of multiple samples combined. Wells were washed with 1 ml of buffer that was added to the corresponding sample tube. Cells were centrifuged at 500×g for 5 min at 4 °C to form a pellet. Supernatant was decanted and cells were washed again with 3 ml of buffer, then centrifuged. After decanting the supernatant, 3 μl of APC-conjugated anti-Annexin-V antibody (BioLegend) was added to each tube in the residual buffer left behind. Samples were mixed by vortex and incubated at room temperature in the dark for 20 min. Samples were then washed and centrifuged a final time, decanting the supernatant and blotting the tubes to remove residual buffer. 50 μl of buffer with DAPI was added to all appropriate samples and mixed, then analyzed by flow cytometry.
Supplementary Fig. 13: Gating for Annexin V flow cytometry analysis. Total cells were gated to remove cell debris, followed by single cell gating on the FSC-A/FSC-H diagonal. Within the single […]
Live cells are negative for both fluorescent markers, DAPI positive/APC negative cells are necrotic, APC positive/DAPI negative cells are still alive but in the early stages of apoptosis, and double positive cells are dead via apoptosis. Percentages of early and late apoptosis were plotted in supplementary figures 4 and 5.
(1 picture or pasted object on this page, not shown here)

## O=C1CCC(N2Cc3c(CNC(=O)c4ccc(F)cc4)cccc3C2=O)C(=O)N1 (stereo not drawn) [SJ7095]
CK1α; 0.111 uM
  CK1a Degradation Rate Constant: 0.8978 λ/hour
  CK1a Percent Maximum Degradation: 64.66% and 62.79% and 62.08%
CK1α; 0.333 uM
  CK1a Degradation Rate Constant: 1.129 λ/hour
  CK1a Percent Maximum Degradation: 74.90% and 74.15% and 73.38%
CK1α; 1 uM
  CK1a Degradation Rate Constant: 1.27 λ/hour
  CK1a Percent Maximum Degradation: 79.97% and 79.25% and 79.09%
CK1α; 3 uM
  CK1a Degradation Rate Constant: 1.321 λ/hour
  CK1a Percent Maximum Degradation: 81.84% and 80.21% and 81.34%
CK1α; 10 uM
  CK1a Degradation Rate Constant: 1.331 λ/hour
CK1α; 10 uM, replicates
  CK1a Percent Maximum Degradation: 81.24% and 82.05% and 83.80%
CK1α; CK1, 0.111 uM, read-out: CK1a Percent Maximum Degradation
  Dmax at 0.111 µM: 64.3%
CK1α; CK1, 0.333 uM, read-out: CK1a Percent Maximum Degradation
  Dmax at 0.333 µM: 75.2%
CK1α; CK1, 1 uM, read-out: CK1a Percent Maximum Degradation
  Dmax at 1 µM: 79.8%
CK1α; CK1, 3 uM, read-out: CK1a Percent Maximum Degradation
  Dmax at 3 µM: 80.9%
CK1α; CK1, 10 uM, replicates, read-out: CK1a Percent Maximum Degradation
  Dmax at 10 µM: 81.6%
CK1α; HEK293
  CK1α degradation depth (HiBiT): near-complete degradation
CK1α; HEK293, at 4 h
  DC50: 35 nM
MOLM-13 cells; CTG 72 h
  Effect on MOLM-13 cell viability (cytotoxicity): high toxicity against MOLM-13 cells
MOLM-13 cells; Homo sapiens, MOLM-13, CTG 72 h, read-out: IC50, MOLM-13 cell growth/viability
  IC50: 71 nM
MOLM-13 cells; Conc 0.00049449
  Cell viability in MOLM-13 cells: 80.5902 and 73.7069 and 73.7893
MOLM-13 cells; Conc 0.00148346
  Cell viability in MOLM-13 cells: 82.2036 and 73.2259 and 66.8432
MOLM-13 cells; Conc 0.00445039
  Cell viability in MOLM-13 cells: 62.2665 and 53.3724 and 60.8209
MOLM-13 cells; Conc 0.0133512
  Cell viability in MOLM-13 cells: 41.9606 and 38.8721 and 37.6352
MOLM-13 cells; Conc 0.0400535
  Cell viability in MOLM-13 cells: 36.9208 and 28.2407 and 35.9101
MOLM-13 cells; Conc 0.12016
  Cell viability in MOLM-13 cells: 28.8773 and 35.0792 and 25.4306
MOLM-13 cells; Conc 0.360481
  Cell viability in MOLM-13 cells: 19.8758 and 18.9138 and 19.7816
MOLM-13 cells; Conc 1.08144
  Cell viability in MOLM-13 cells: 22.2039 and 16.4235 and 15.6504
MOLM-13 cells; Conc 3.24433
  Cell viability in MOLM-13 cells: 17.3048 and 13.4196 and 15.362
MOLM-13 cells; Conc 9.733 (unit not given), replicates
  Cell viability in MOLM-13 cells: 7.49 and 6.672 and 5.493
CRBN−/− MOLM-13 cells; 1 μM
  Effect on viability of CRBN−/− cells (annexin-V): no effect on the viability
CRBN−/− MOLM-13 cells; SI_Fig 4b, DMSO 3.1, 3.5, 3.3
  Late apoptosis, flow cytometry: 2.7 and 3 and 3.2
CRBN−/− MOLM-13 cells; SI_Fig 4b, DMSO 7.1, 7.5, 7.8
  Early apoptosis, flow cytometry: 6.9 and 8.1 and 7
CRBN−/− MOLM-13 cells; SI_Fig 5b, DMSO 1.3, 1.9, 2
  Late apoptosis, flow cytometry: 1.7 and 2.1 and 1.9
CRBN−/− MOLM-13 cells; SI_Fig 5b, DMSO 4.6, 5.9, 7.6
  Early apoptosis, flow cytometry: 6.5 and 6.7 and 7.2
CRBN−/− MOLM-13 cells; SI_Fig 4c, DMSO 10.2, 11.1, 11.2
  total apoptosis, flow cytometry: 9.6 and 11.1 and 10.2
CRBN−/− MOLM-13 cells; SI_Fig 5c, DMSO 5.8, 7.8, 9.6
  total apoptosis, flow cytometry: 8.2 and 8.8 and 9.1
